{"source": "patent US9382229B2", "about": "“Compounds and methods of use thereof for treating neurodegenerative disorders” (THE JOHNS HOPKINS UNIVERSITY, priority 2011, dated 2016)", "key": {"[1]": {"test_system": "retinal ganglion cells (RGCs)", "test": "RGC cell survival assay with murine purified RGCs, 3 days in culture (Calcein AM/Hoechst/Ethidium homodimer staining, Cellomics imager)", "format": "cell-based, mouse", "conditions": "for RGC survival: purified mouse RGCs cultured 3 days with 25-5000 nM compound", "experimental": "RGCs were purified from 2-5 day-old C57BL/6 mice, and cultured for 3 days in a media containing Neurobasal and B27, with or without 25-5000 nM of sunitinib (sun) or VX680. RGC survival was determined by combined staining with Calcein A M, Hoescht, and Ethidium homodimer. Images were acquired and analyzed with a Cellomics imager. Error bars: Mean±S.E.M.;\n(§1) Purified mouse RGCs were cultured in the presence of sunitinib (0.5 μM), 25-5000 nM of VX680, JHU611 or JHU612, for 3 days. RGC survival was determined by combined staining with Calcein A M, Hoescht, and Ethidium homodimer. Images were acquired and analyzed with a Cellomics imager. Error bars: Mean±S.E.M.;\nas §1, with “JHU609” for “JHU611”, “JHU610,” for “JHU612,”\nas §1, with “JHU607” for “JHU611”, “JHU608,” for “JHU612,”, “days. The percentages of” for “days.”\nRGCs were cultured with the indicated drug at the indicated concentration, cultured, and survival was monitored using a calcein AM assay with a Cellomics VTI imager (Thermo Scientific, 100 Technology Drive, Pittsburgh, Pa.) and image analysis software."}, "[2]": {"test_system": "retinal ganglion cells (RGCs)", "test": "Time course of RGC cell survival with murine purified RGCs, up to 6 days in vitro", "format": "cell-based, mouse", "conditions": "for RGC survival: 6 days in vitro (DIV6), percent survival compared to zero time per FIG. 2 legend, Mean±S.E.M.", "experimental": "FIG. 2 is a comparison of the relative efficacy of sunitinib, VX680 and neurotrophic factors in promoting RGC survival in vitro. […] Purified mouse RGCs were cultured in the presence of sunitinib (0.5 or 1 μM), VX680 (1 or 2 μM), and a combination of BDNF, CNTF, and GDNF, for up to 6 days. RGC survival (percent survival compared to zero time) was determined at the indicated day in vitro (DIV) (0, 1, 2, 3, and 6 DIV). Error bars: Mean±S.E.M.;\nFIG. 3 is representative images showing the RGCs from the study described in FIG. 2;\nFor comparison, data from vehicle and BDNF/CNTF/GDNF also are shown."}, "[3]": {"test_system": "hippocampal neurons", "test": "Hippocampal neuron survival against 3-nitropropionic acid (3-NP) induced cell death, MTT assay", "format": "cell-based", "conditions": "cell death induced by 3-NP, VX680 at 0.5, 1, 5 and 10 μM", "experimental": "Cell death of hippocampal neurons was induced by the mitochondrial toxin 3-nitropropionic acid (3-NP). VX680 was added to the media at concentrations of 0.5 μM, 1 μM, 5 μM and 10 μM. Cell survival was determined using a MTT assay. The effect of VX680 on cell survival was analyzed with the student t-test. Error bars: Mean±S.D.; and […]"}, "[4]": {"test_system": "primary murine retinal ganglion cells (RGCs)", "test": "RGC-based high content screen of small molecule libraries (CellTiter-Glo ATP, PI/Hoechst staining)", "format": "cell-based, mouse", "conditions": "purified primary murine RGCs, CellTiter-Glo or PI/Hoechst", "experimental": "Survival of purified mouse RGCs with increasing concentrations of VX680 (tozasertib) was determined by measuring cellular ATP levels with CellTiter-Glo (CTG), or by combined staining with Propidium iodide (PI) and Hoescht (Hoe) (PI/Hoe) (FIG. 8A). The efficacy in promoting primary mouse RGC survival by VX680 and NCGC00188382-01 was quantified and compared to sunitinib (FIGS. 8B and 8C)."}}}
{"smiles": "Cc1cc(Nc2nc(Sc3ccc(NC(=O)C4CC4)cc3)nc(N3CCC(O)CC3)n2)n[nH]1", "note": "[JHU611, N-(4-(4-(4-hydroxypiperidin-1-yl)-6-(5-methyl-1H-pyrazol-3-ylamino)-1,3,5-triazin-2-ylthio)phenyl)cyclopropanecarboxamide]", "values": [{"measurement": "RGC survival", "setting": "[1]", "result": "promote RGC survival"}]}
{"smiles": "Cc1cc(Nc2nc(Sc3ccc(NC(=O)C4CC4)cc3)nc(N3CCOCC3)n2)n[nH]1", "note": "[JHU609, N-(4-(4-(5-methyl-1H-pyrazol-3-ylamino)-6-morpholino-1,3,5-triazin-2-ylthio)phenyl)cyclopropanecarboxamide]", "values": [{"measurement": "RGC survival", "setting": "[1]", "result": "promote RGC survival"}]}
{"smiles": "Cc1cc(Nc2nc(Sc3ccc(NC(=O)C4CC4)cc3)nc(N3CCCNCC3)n2)n[nH]1", "note": "[JHU612, N-(4-(4-(1,4-diazepan-1-yl)-6-(5-methyl-1H-pyrazol-3-ylamino)-1,3,5-triazin-2-ylthio)phenyl)cyclopropanecarboxamide]", "values": [{"measurement": "RGC survival", "setting": "[1]", "result": "promote RGC survival"}]}
{"smiles": "Cc1cc(Nc2cc(N3CCN(C)CC3)nc(Sc3ccc(NC(=O)C4CC4)cc3)n2)[nH]n1", "note": "[VX-680, Tozasertib]", "values": [{"measurement": "therapeutic window compared with sunitinib", "setting": "[1]; FIG. 1, murine purified RGCs", "result": "wider therapeutic window"}, {"measurement": "cell survival promoting activity compared with sunitinib", "setting": "[1]; FIG. 1, murine purified RGCs, calcein AM assay, sunitinib as positive control", "result": "more potent cell survival promoting activity than sunitinib"}, {"measurement": "RGC survival", "setting": "[1]", "result": "promotes retinal ganglion cell (RGC) survival in vitro"}, {"measurement": "RGC survival", "setting": "[2]; 1 μM", "result": "49.66 ± 2.27"}, {"measurement": "RGC survival", "setting": "[2]; 2 μM", "result": "60.32 ± 2.47"}, {"measurement": "neuroprotective activity compared with sunitinib and BDNF/CNTF/GDNF combination", "setting": "[2]; FIG. 2, time course 0-6 DIV", "result": "exceeds that of sunitinib and a combination of brain derived neurotrophic factor (BDNF) ciliary neurotrophic factor (CNTF), and glial-derived neurotrophic factor (GDNF)"}, {"measurement": "survival of hippocampal neurons", "setting": "[3]", "result": "promotes the survival of hippocampal neurons against mitochondrial injury and oxidative stress"}, {"measurement": "RGC survival / neuroprotection in high content screen", "setting": "[4]", "result": "could promote the survival of cultured RGCs"}, {"measurement": "RGC survival / neuroprotection in high content screen", "setting": "[4]; listed as VX680", "result": "neuroprotective compounds"}]}
{"smiles": "CC(NCc1ccc2c(c1)nc(NC(=O)c1ccc(-c3cn[nH]c3)s1)n2CC(C)(C)O)C(C)(C)C", "note": "(stereo not drawn) [NCGC00188382-01]", "values": [{"measurement": "RGC survival / neuroprotection in high content screen", "setting": "[4]", "result": "neuroprotective compounds"}]}
{"smiles": "Cc1cc(Nc2nc(Cl)nc(Sc3ccc(NC(=O)C4CC4)cc3)n2)n[nH]1", "note": "[JHU607, N-(4-(4-chloro-6-(5-methyl-1H-pyrazol-3-ylamino)-1,3,5-triazin-2-ylthio)phenyl)cyclopropanecarboxamide]", "values": [{"measurement": "RGC survival", "setting": "[1]", "result": "promote RGC survival"}]}
{"smiles": "CCN(CC)CCNC(=O)c1c(C)[nH]c(/C=C2\\C(=O)Nc3ccc(F)cc32)c1C", "note": "[Sunitinib, sunitinib]", "values": [{"measurement": "RGC survival", "setting": "[2]; 0.5 μM", "result": "23.73 ± 1.17"}, {"measurement": "RGC survival", "setting": "[2]; 1 μM", "result": "26.37 ± 1.61"}]}
{"smiles": "Cc1cc(Nc2nc(Sc3ccc(NC(=O)C4CC4)cc3)nc(N3CCC(N4CCCC4)CC3)n2)n[nH]1", "note": "[JHU610, N-(4-(4-(5-methyl-1H-pyrazol-3-ylamino)-6-(4-(pyrrolidin-1-yl)piperidin-1-yl)-1,3,5-triazin-2-ylthio)phenyl)cyclopropanecarboxamide]", "values": [{"measurement": "RGC survival", "setting": "[1]", "result": "promote RGC survival"}]}
{"smiles": "Cc1cc(Nc2nc(Sc3ccc(NC(=O)C4CC4)cc3)nc(N3CCNCC3)n2)n[nH]1", "note": "[JHU608, N-(4-(4-(5-methyl-1H-pyrazol-3-ylamino)-6-(piperazin-1-yl)-1,3,5-triazin-2-ylthio)phenyl)cyclopropanecarboxamide]", "values": [{"measurement": "RGC survival", "setting": "[1]", "result": "promote RGC survival"}]}
